This note sets out measurements from publication PMC9503535, “Inositol Derivatives with Anti-Inflammatory Activity from Leaves of Solanum capsicoides Allioni” (Molecules, 2022).

The nature of data set [1]: Cytotoxicity on BV2 cells, CCK8 method. The format is cell-based. The settings on record: mouse, BV2 microglial cells, CCK8, 24 h treatment, 5-200 μM, read-out: Cytotoxic activities IC50. The method, then:
The cytotoxicity assay was performed with a modified CCK8 method. First, BV2 microglial cells were cultured with 96-well microplates (10^4 cells/well in […] medium) for 24 h. Then, the cells were treated with different concentrations (5, 10, 30, 50, 100, 200 μM) of compounds. After the cells were incubated for 24 h, added 10 μL CCK8 solution to each well and incubated for 2 h in a 5% CO2 humidifier at 37 ℃. The absorbance was recorded at 450 nm with a microplate reader (BioTek Company, Winooski, VT, USA), repeating three times, and its IC50 value was calculated.
For orientation: Tetrazolium dyes change colour on reduction, which living cells bring about.

Data set [2] deals with NO production in LPS-stimulated BV2 cells. The data set is described as follows: Inhibition of NO production in LPS-stimulated BV2 cells (Griess reaction). It counts as cell-based. The settings on record: read-out: Inhibitory effects on NO in LPS-induced BV-2, IC50. How it is done: BV2 microglial cells were cultured in DMEM containing 10% fetal bovine serum, 100 IU/mL penicillin, and 100 μg/mL streptomycin at 37 ℃ with 5% CO2. Then, the cells were placed in 96-well microplates and treated with different compounds at 1–8 concentrations (5, 10, 30, 50, 100, 200 μM) for 1 h. Next, the cells were treated with 1 μg/mL LPS for 24 h to detect the NO (nitric oxide) levels in culture supernatants. After the Griess reaction (incubated at 37 ℃ with 5% CO2 for 0.5 h), the absorbance of cells was measured with a microplate reader (BioTek Company, Winooski, VT, USA) at […], repeated three times, and its IC50 value was calculated.
(In general: The Griess reaction detects nitrite, a stable product of nitric oxide.)

Where [3] appears, read: Mus musculus, BV-2, compound 1 h then 1 μg/mL LPS 24 h.

Each structure is given as a SMILES string. Where two headings read alike, the source gives them in different places. Bounds are passed on as bounds.

One may read the IC50 as the concentration that inhibits the measured activity by half. On to `CCC(C)C(=O)O[C@@H]1[C@H](OC(C)=O)[C@@H](OC(=O)C(C)CC)[C@H](O)[C@@H](O)[C@@H]1OC(=O)C(C)C` (relative stereo) [Compound 1, myoinositol-1,3-(2-methylbutyrate)-2-acetate-4-isobutyryloxy], for which the IC50 at 24 h in data set [1] was above 100 µM. Also, the IC50 in data set [2] (setting [3]) was found to be 24.3 ± 1.82 µM. The matching figures for `CCC(C)C(=O)O[C@@H]1[C@H](OC(=O)C(C)C)[C@@H](OC(=O)C(C)C)[C@H](O)[C@@H](O)[C@@H]1OC(C)=O` (relative stereo) [Compound 2, myoinositol-1,2-isobutyryloxy-3-(2-methylbutyrate)-4-acetate]: above 100 µM and 31.7 ± 2.71 µM. The matching figures for `CCC(C)C(=O)O[C@H]1[C@@H](OC(=O)C(C)CC)[C@H](OC(C)=O)[C@@H](O)[C@H](OC(=O)C(C)CC)[C@H]1OC(C)=O` (relative stereo) [Compound 3, myoinositol-1,4-acetate-2,3,5-(2-methylbutyrate)]: above 100 µM and above 100 µM. The like results for `CCC(C)C(=O)O[C@H]1[C@@H](OC(=O)C(C)CC)[C@H](OC(=O)C(C)CC)[C@@H](O)[C@H](OC(=O)C(C)C)[C@H]1OC(C)=O` (relative stereo) [Compound 4, myoinositol-1,2,3-(2-methylbutyrate)-4-acetate-5-isobutyryloxy] were, in that order, above 100 µM and above 100 µM. As to `CCC(C)C(=O)O[C@@H]1[C@@H](O)[C@H](O)[C@H](OC(=O)C(C)CC)[C@H](OC(=O)C(C)CC)[C@H]1O` (relative stereo) [Compound 5, myoinositol-2,3,6-(2-methylbutyrate)], in data set [1], the IC50 at 24 h is above 100 µM. Further, the IC50 in data set [2] (setting [3]) was determined as 11.2 ± 0.14 µM. The like results for `CCC(C)C(=O)O[C@@H]1[C@H](OC(=O)C(C)CC)[C@@H](O)[C@H](O)[C@@H](O)[C@@H]1OC(C)=O` (relative stereo) [Compound 6, myoinositol-2,3-(2-methylbutyrate)-4-acetate] were, in that order, above 100 µM and 23.3 ± 0.74 µM.

In the case of `CCC(C)C(=O)O[C@@H]1[C@H](O)[C@@H](O)[C@H](O)[C@@H](OC(=O)C(C)CC)[C@@H]1OC(C)=O` (relative stereo) [Compound 7, myoinositol-1,3-(2-methylbutyrate)-2-acetate], the IC50 at 24 h in data set [1] was above 100 µM. For the same molecule, the IC50 in data set [2] (setting [3]) came out at 14.5 ± 1.22 µM. For the molecule `CCC(C)C(=O)O[C@@H]1[C@@H](OC(=O)C(C)CC)[C@H](O)[C@@H](O)[C@H](O)[C@@H]1OC(=O)C(C)CC` (relative stereo) [Compound 8, myoinositol-2,3,6-(2-methylbutyrate)], the IC50 at 24 h in data set [1] was above 100 µM. The IC50 in data set [2] (setting [3]) worked out at 31 ± 0.92 µM. For `CNC(=N)NCCC[C@H](N)C(=O)O` [NMMA, reference compound], in data set [2] (compound 1 h then 1 μg/mL LPS 24 h), the IC50 was 1.67 ± 0.24 µM.
